Data set [1] has as its system Pasteurella multocida. Kind of data set: Pasteurella multocida infection in chicks. It counts as in vivo. Conditions: for activity alone against Pasteurella multocida: Example 3 Experiment 1; for Cumulative Mortality on day 1: groups of 10 chicks, 15:85 TMP SQX p.p.m / DMHP p.p.m: b654 25/20, b655 25/10, b656 25/5, b657 12.5/20, b658 12.5/10, b659 12.5/5, b660 50/-, b661 25/-, b662 12.5/-, b665 TMP 15, b666 TMP 30, b667 SQX 85, b669 SQX 42.5.

For data set [2], the system named is E. tenella. Kind of data set: coccidiosis screening test in chicks, E. tenella. Conditions: Expt. 4; 100,000 oocysts; p.p.m SQX/DV/DMHP: b374 10/-/-; b375 -/20/-; b376 -/-/10; b377 10/-/10; b378 -/20/10; b379 10/20/-; b381 10/20/10; b382 20/-/-; b383 -/40/-; b384 -/-/20; b385 20/-/20; b386 -/40/20; b387 20/40/-; b389 20/40/20. It counts as in vivo, Eimeria tenella. As for the experimental part: "Screening tests" were performed to establish the effectiveness of the compounds of formula (I) both alone and in combination with a competitor and or an inhibitor and to determine the most useful levels of relative concentrations of each component in combatting or suppressing coccidiosis.
Groups of Ranger cockerels, housed in small, heated cages with wire floors situated in enironmentally controlled isolation rooms, were infected orally with sporulated oocysts of the Eimeria spp such as E. tenella or E. acervulina. The appropriate test compound(s), (DMHP, sulphaquinoxaline (SQX) or diaveridine (DV) or any combination of these) were incorporated in a small quantity of specially formulated laboratory ration deficient in Vitamin K (`L.D.4 mash`), as a 1/10 pre-mix, which was then mixed into the diet on a horizontal roller drum mixed and administered to groups of chicks one day prior to infection, leaving some groups as untreated controls. Administration was continued for several days, for example about 8 or 9 days.
The amount of damage, marked by lesions in the caecal walls was investigated in those chicks that died during the course of the experiment, and in those sacrificed on the final day of administration, and compared with the untreated controls as a basis for the determination of therapeutic activity. In addition the mortality rate and the percentage weight gains in the various groups were assessed. A marked or definite effect of the administered drug could be recognised even when the mortality rates were similar or identical, since the increase in the weight gains and the reduction of the extension of lesions indicated by the lesion score, is characteristic of an improvement. […]
4:1 sulphaquinoxaline/diaveridine mixtures at levels of 80/20, 60/15, 40/10 and 20/5 p.p.m. were administered alone and in combination with a wide range of low concentrations of DMHP to the birds.
The results of these screening tests are set forth in Table 4 showing the concentration of the various component compounds in parts per million of the bird's diet, the mortality from coccidiosis, the percentage weight gain, the lesion score the oocyst output, and the activity. The caecal lesion index is calculated using a score system where: […]
In addition a score of 4 is assigned to any bird that dies of coccidiosis during the experiment. [formula] In the activity column, +++, ++, +, ± and - relate respectively to very high, high, slight, doubtful and nil activity of the test drug against the Eimeria infection.

For data set [3], the system named is Pseudomonas aeruginosa. As to the kind of experiment: zone inhibition, pteridine in agar, drugs in well. It counts as cell-based. As to conditions: for complete zone inhibition, SMX (300) / zone including partial inhibition, SMX (300): SMX 300 μg/ml; for zone including partial inhibition, TMP (30): TMP 30 μg/ml; for complete zone inhibition, TMP + SMX (5) (100) / zone including partial inhibition, TMP + SMX (5) (100): TMP 5 + SMX 100 μg/ml. The method, then: (§1) The pteridine was included in a soya peptone medium of low thymidine content (Wellcotest Sensitivity Test Agar) contained in a Petri-dish and the other component(s) added to the well resulting from the removal of a small plug from the medium. The surface of the medium was inoculated with the test organism and then incubated.

Data set [4] relates to Staphylococcus aureus. Kind of data set: zone inhibition, pteridine in agar, drugs in well. It counts as cell-based. As to conditions: for complete zone inhibition, SMX (300) / zone including partial inhibition, SMX (300): SMX 300 μg/ml; for complete zone inhibition, TMP + SMX (5) (100) / zone including partial inhibition, TMP + SMX (5) (100): TMP 5 + SMX 100 μg/ml. The method, then: as §1

In data set [5] the test system is Escherichia coli CN 314. As to the kind of experiment: testing discs on standard nutrient medium. The format is cell-based. As to conditions: per 6 mm filterpaper disc: TMP 1.25 μg, SMX 23.75 μg, DMHP 100 μg, as in label.
Data set [6] concerns Pseudomonas aeruginosa CN 200. Kind of data set: testing discs on standard nutrient medium. The format is cell-based. As to conditions: per 6 mm filterpaper disc: TMP 1.25 μg, SMX 23.75 μg, DMHP 100 μg, as in label.
Data set [7] concerns Staphylococcus aureus N 491. As to the kind of experiment: growth rate inhibition, turbidometric, Wellcome Nutrient Broth. The format is cell-based.
The test system of data set [8] is Staphylococcus aureus. As to the kind of experiment: microbe, parasite or virus in culture. Conditions: for Percentage of inoculum viable at 24 hrs.: DMHP Nil, Test 2. As for the experimental part: The results are shown in Table 9 in which the bactericidal activity is expressed as the percentage of the original inoculum, measured by viable counts, which was alive after 24-hours' incubation at 37° C. The inoculum used gave a final concentration of 10^6 organisms per ml.

For data set [9], the system named is Staphylococcus aureus CN 491. Kind of data set: testing discs on standard nutrient medium. The format is cell-based. Conditions: per 6 mm filterpaper disc: TMP 1.25 μg, SMX 23.75 μg, DMHP 100 μg, as in label.
The subject of data set [10] is Proteus vulgaris CN 329. Kind of data set: testing discs on standard nutrient medium. The format is cell-based. Conditions: per 6 mm filterpaper disc: TMP 1.25 μg, SMX 23.75 μg, DMHP 100 μg, as in label.
For data set [11], the system named is Streptococcus faecalis CN 478. Kind of data set: testing discs on standard nutrient medium. The format is cell-based. As to conditions: per 6 mm filterpaper disc: TMP 1.25 μg, SMX 23.75 μg, DMHP 100 μg, as in label.
The test system of data set [12] is Staphylococcus aureus. As to the kind of experiment: M.I.C. in Wellcome Nutrient Agar, 18 hours at 37° C. As to conditions: DMHP Nil. The format is cell-based.
Setting [13] is: pteridine 3 μg/ml, TMP 30 μg/ml.
[14] abbreviates: pteridine 10 μg/ml, TMP 30 μg/ml.
Setting [15] is: Table 6, doses as in E56, listed as TMP.
Setting [16] is: Staphylococcus aureus, N491, 7 h, read-out: Percentage of inhibition at 7 hrs.
[17] abbreviates: Staphylococcus aureus, 24 h, read-out: Percentage of inoculum viable at 24 hrs.

“And” between values parts separate entries of the source, which are not always exact repeats. Identical values can stand only once.

From patent US4795639A, “Potentiating formulations” (priority 1971, dated 1989) come the findings set out here.

One may read the inhibition as the relative decrease from the control value, in per cent.

`COc1ccc(Cc2cnc(N)nc2N)cc1OC` [DV, 2,4-diamino-5-(3',4'-dimethoxybenzyl) pyrimidine]: the “activity alone against Pasteurella multocida” value in data set [1] is listed as “low activity alone”. Further, in data set [1] (Table 5, doses as in E44), the “Average Weight of surviving chicks” value was determined as 140.0 gm; the “Cumulative Mortality on day 2” value was 2 and 1; the “Cumulative Mortality on day 5” value is 6 and 5; the “Cumulative Mortality on day 6” value was 6 and 8. Moreover, in data set [1] (Table 5, doses as in E44), the “Cumulative Mortality on day 7” value is 7 and 9; the “Cumulative Mortality on day 8” value is 7 and 10; the “Cumulative Mortality on day 9” value was determined as 7; the “Cumulative Mortality on day 10” value worked out at 7. Also, the “Mortality from Coccidiosis” value in data set [2] was 8/10 and 8/9.
Turning to `CCC1(CC)Nc2nc(N)nc(O)c2N=C1CO` [R = CH2 OH R = R^2 = Et, 2-amino-4-hydroxy-6-hydroxymethyl-7,7-diethyl-7,8-dihydropteridine], the “complete zone inhibition, SMX (300)” value was found to be 9.0 centimeters in data set [3] (pteridine 3 μg/ml); 13 centimeters in data set [3] (pteridine 10 μg/ml); 6.5 centimeters in data set [4] (pteridine 3 μg/ml); 10.5 centimeters in [4] (pteridine 10 μg/ml); 12.5 centimeters in [4] (pteridine 30 μg/ml). Further, the “zone including partial inhibition, SMX (300)” value in data set [3] (pteridine 3 μg/ml) was determined as 13.0 centimeters; in data set [3] (pteridine 10 μg/ml) it was 16.0 centimeters; in [4] (pteridine 3 μg/ml), 12.5 centimeters; in data set [4] (pteridine 10 μg/ml), 14.0 centimeters; in data set [4] (pteridine 30 μg/ml), 17.0 centimeters. Besides, the “zone including partial inhibition, TMP (30)” value in [3] (pteridine 3 μg/ml) is 3.0 centimeters; in data set [3] (pteridine 10 μg/ml) it was 5.0 centimeters; in data set [4] (setting [13]), 10.5 centimeters; in data set [4] (setting [14]), 13.0 centimeters; in data set [4] (pteridine 30 μg/ml, TMP 30 μg/ml), 17.0 centimeters. For the same compound, the “complete zone inhibition, TMP + SMX (5) (100)” value in data set [3] (pteridine 3 μg/ml) was 7.0 centimeters; in [3] (pteridine 10 μg/ml) it was 8.0 centimeters; in data set [4] (pteridine 3 μg/ml), 10.5 centimeters; in [4] (pteridine 10 μg/ml) it was 11.0 centimeters; in data set [4] (pteridine 30 μg/ml) it was 12.5 centimeters. Also, the “zone including partial inhibition, TMP + SMX (5) (100)” value in [3] (pteridine 3 μg/ml) was 10.0 centimeters; in data set [3] (pteridine 10 μg/ml) it was 12.0 centimeters; in data set [4] (pteridine 3 μg/ml), 12.5 centimeters; in data set [4] (pteridine 10 μg/ml), 14.5 centimeters; in data set [4] (pteridine 30 μg/ml), 17.0 centimeters. The “synergism with TMP and SMX against Staphylococcus aureus” value in [4] (compared with DMHP) is recorded as “slightly more active than DMHP”. The “complete zone inhibition, TMP (30)” value in data set [4] (setting [13]) was determined as 8.5 centimeters; in data set [4] (setting [14]), 10.5 centimeters; in data set [4] (pteridine 30 μg/ml in medium, TMP 30 μg/ml in well, about 6× magnification) it was 12.5 centimeters.
On to `Nc1ccc(S(=O)(=O)Nc2cnc3ccccc3n2)cc1` [SQX, sulphaquinoxaline], for which, in [1], the “activity alone against Pasteurella multocida” value is “good activity alone”. Further, in data set [1] (Table 5, doses as in E44), the “Average Weight of surviving chicks” value is 259.5 gm and 234.0 gm; the “Cumulative Mortality on day 5” value was determined as 1; the “Cumulative Mortality on day 6” value is 1; the “Cumulative Mortality on day 7” value was 1. For the same compound, in [1] (Table 5, doses as in E44), the “Cumulative Mortality on day 8” value turned out to be 1, the “Cumulative Mortality on day 9” value was determined as 1 and the “Cumulative Mortality on day 10” value came out at 1. Also, the “Weight gain (% of control)” value in [1] (Table 5, percentage of uninfected controls, doses as in E44) is 84 % of control and 69 % of control. Also, in data set [1] (Table 6, doses as in E56), the “Cumulative Mortality on day 6” value is 1, the “Cumulative Mortality on day 7” value was 1, the “Cumulative Mortality on day 8” value is 1 and the “Cumulative Mortality on day 9” value was found to be 1. In addition, in [1] (Table 6, doses as in E56), the “Cumulative Mortality on day 10” value was 1 and the “Cumulative Mortality on day 11” value is listed as 1. In addition, in data set [1] (Table 6), the “Cumulative Mortality on day 1” value is reported as 0. The “Mortality from Coccidiosis” value in data set [2] was 8/10 and 9/10.
For the compound `COc1cc(Cc2cnc(N)nc2N)cc(OC)c1OC` [Trimethoprim, 2,4-diamino-5-(3'4',5'-trimethoxybenzyl)pyrimidine], the “Cumulative Mortality on day 4” value in data set [1] (Table 6, doses as in E56) was 8. In addition, the “Cumulative Mortality on day 6” value in data set [1] (Table 6, doses as in E56) turned out to be 10. The “Cumulative Mortality on day 2” value in [1] (setting [15]) was 4 and 2. Further, the “Cumulative Mortality on day 3” value in data set [1] (setting [15]) was 4 and 5. Moreover, the “Cumulative Mortality on day 5” value in [1] (setting [15]) is 10 and 8. For the same compound, the “Cumulative Mortality on day 1” value in data set [1] (Table 6) worked out at 0. Also, the “Size of zone in cm (×6 magnification)” value in data set [5] came to 34 cm; in data set [6], 0 cm; in data set [9], 21 cm; in data set [10] it was 19 cm; in [11], 28 cm. Besides, in data set [7], the “Percentage of inhibition at 7 hrs.” value is 6 and 12. In data set [7] (setting [16]), the inhibition at 0.002 µg/mL was 10%. Further, in data set [7] (setting [16]), the inhibition at 0.004 µg/mL is 8%. Further, the viability at 0.3 µg/mL in data set [8] (setting [17]) was over 100%. For the same compound, the viability at 1 µg/mL in data set [8] (setting [17]) is over 100%. Moreover, the “Percentage of inoculum viable at 24 hrs.” value in data set [8] (Trimethoprim 0.3 μg./ml) and in data set [8] (Trimethoprim 1.0 μg./ml) was over 100% in each case.
In the case of `Cc1cc(NS(=O)(=O)c2ccc(N)cc2)no1` [Sulphamethoxazole, sulphamethoxazole], the “Size of zone in cm (×6 magnification)” value in [5] came to 28 cm; in data set [6], 32 cm; in data set [9], 26 cm; in data set [10] it was 36 cm; in [11], 0 cm. In addition, the “Sulphamethoxazole M.I.C.” value in data set [12] was 1.0 µg/mL. The inhibition at 0.1 µg/mL in data set [7] (setting [16]) stood at 16%.
